From patent EP4364730A1, “PHARMACEUTICAL COMPOSITION COMPRISING L-ACETYL CARNITINE AND BETA-CARYOPHYLLENE” (Chiesi Italia S.p.A., priority 2022, dated 2024)

System: HMC3 cell line
Assay: Cell viability test (MTT assay)
Type: cell-based, Homo sapiens, human
Conditions: HMC3 cells, tested 0.039 to 100 µM
Method: The American Type Culture Collection's HMC3 (CRL-3304) cell line was grown in the MEM growth medium supplemented with 10% fetal bovine serum (FBS), 100 U/mL penicillin, and 100 µg/mL streptomycin (complete medium). The cells were kept at 37 °C in a 5% CO2 incubator and grown up to 100% confluence before use. In particular, regarding BCP, cells were treated with this substance at concentrations ranging from 0.039 to 100 µM (9 concentrations). Regarding LAC, cells were treated with this substance at concentrations ranging from 0.06 to 30 mM (9 concentrations). […] The MTT cell viability test was performed by seeding 1 × 10^4 cells/well in a 96-multiwell and grown at 37 °C and 5% CO2. The next day, cells were treated with different concentrations of BCP and LAC and their combinations (Mix). […] The formazane crystals were then solubilized with 100 µL DMSO/well for 15 min and the absorbance was measured at the wavelength of 570 nm using a Multiskan™ GO microplate reader (Thermo Scientific Microplate Spectrophotometer). Finally, the cytotoxicity of the substances in combination was evaluated starting from the maximum non-cytotoxic concentrations of each molecule (BCP and LAC alone) (Table 1).

C=C1CC/C=C(\C)CC[C@@H]2[C@@H]1CC2(C)C [BCP, (1R,4E,9S)-4,11,11-trimethyl-8-methylidenebicyclo[7.2.0]undec-4-ene]
maximum non-cytotoxic concentration: 100 µM
